# Experimental data from PMC8928955, “Assessment of Bioavailability after In Vitro Digestion and First Pass Metabolism of Bioactive Peptides from Collagen Hydrolysates” (Current Issues in Molecular Biology, 2021).
# Where two headings read alike, the source gives them in different places. Non-standard residues stand in square brackets, D forms with d. Residues, ends and D or L forms follow the SMILES beside them. Hyp = O=C(O)[C@@H]1C[C@@H](O)CN1
# Tests used:
# HepG2 cells [1] = assay: Hepatic first pass effect on transported peptides after HepG2 incubation; conditions: basolateral 5 h as percentage of basolateral 2 h, mean ± SEM
# Method: (§1) A HIEC-6/HepG2 cell co-culture system was used to determine the bioavailability of targeted BAPs from CHs after digestion (Figure 1). HIEC-6 cells and HepG2 were cultured separately but then later combined in a transwell system using polyester (PET) ThinCerts (Greiner Bio-One, Cat no. 662641, Monroe, NC, USA) and corresponding 24 multiwell cell culture plates (Greiner Bio-One, Cat no. 662160, Monroe, NC, USA). […] HIEC-6 cells were seeded onto ThinCerts at 1 × 10^5 cells/well. The medium was changed every 2 days and cells were grown for a total of 8–9 days. […] HepG2 cells were then added to the basolateral side of the transwell (1 million cells/mL). […] At time 0, the apical medium was replaced with media containing 2 mg/mL reconstituted freeze-dried (FD) CH digesta (either CH-GL and CH-OPT), or only media (blank). The co-culture and treatments were incubated for 2 h at 37 °C, 5% CO2. After 2 h, the inserts containing HIEC-6 cells were removed, and the plates containing HepG2 cells were incubated for another 3 h. Samples were taken from the apical and basolateral sides at times 0, 2 and 5 h, and microcentrifuged at 2000 rpm for 15 min. The supernatant was collected and used for subsequent peptide analysis (see Section 2.7). Three independent experiments assessing bioavailability were completed. Controls included inserts without seeded cells (TEER control) and seeded wells with no CHs treatment (only media; negative control).
# (§2) Samples were purified from cellular and protein debris by adapting the use of Amicon® Ultra-0.5 Centrifugal Filter Devices (Millipore, UFC501096, Burlington, Massachusetts, USA). Samples from cell culture were processed as per the manufacturer’s instructions, however, the filtrate (comprising of peptides) was not discarded and instead used for analysis. A CE system (Capel 205M; Lumex Instruments, Fraserview Place, BC) was used for the targeted quantification of 5 peptides (Gly-Pro, Hyp-Gly, Ala-Hyp, Pro-Hyp, Gly-Pro-Hyp). […] Injections were completed using pressure (30 mbar for 10 s) at 0 kV and analysis was completed at 20 kV using 0 mbar for 1199 s at 205 nm. A 0.1 M phosphate buffer (pH 2.4) was used for rinsing and as running buffer. Filtered samples were diluted with running buffer before injection. Before sample injection, the capillary was rinsed with MilliQ water, 0.5 M NaOH and running buffer, each for 5 min. The electropherograms were processed to determine peak area using the software Elforun (Lumex Instruments Canada, Version 4.2.4, Mission, BC, Canada). Quantification of each peptide, based on peak area, was performed using external standards and corresponding calibration curves, where the linearity was assessed by the coefficients of determination, R^2. The mean of three measurements for each treatment was taken.
# (§3) Hepatic first pass effect (%) was calculated as:Hepatic effect (%) = Peptide content after incubation with HepG2 (Basolateral 5 h)/Content of peptide available for liver metabolism (Basolateral 2 h) × 100
# [2] = Peptide transport and apparent permeability across the HIEC-6 intestinal layer of a HIEC-6/HepG2 transwell co-culture; conditions: human; for Papp A→B at 2 h: Apparent permeability coefficient (Papp), mean ± SEM
# Method: as §1
# (§4) Samples were purified from cellular and protein debris by adapting the use of Amicon® Ultra-0.5 Centrifugal Filter Devices (Millipore, UFC501096, Burlington, Massachusetts, USA). Samples from cell culture were processed as per the manufacturer’s instructions, however, the filtrate (comprising of peptides) was not discarded and instead used for analysis. A CE system (Capel 205M; Lumex Instruments, Fraserview Place, BC) was used for the targeted quantification of 5 peptides (Gly-Pro, Hyp-Gly, Ala-Hyp, Pro-Hyp, Gly-Pro-Hyp). The instrument was set for 20 °C and the separation capillary (Molex, 2000019, Lisle, Illinois, US) was similar to previous CE methods for collagen analysis [36]; 60 cm in total length, 53 cm effective length, and 75 µm inside diameter. Injections were completed using pressure (30 mbar for 10 s) at 0 kV and analysis was completed at 20 kV using 0 mbar for 1199 s at 205 nm. A 0.1 M phosphate buffer (pH 2.4) was used for rinsing and as running buffer. Filtered samples were diluted with running buffer before injection. Before sample injection, the capillary was rinsed with MilliQ water, 0.5 M NaOH and running buffer, each for 5 min. The electropherograms were processed to determine peak area using the software Elforun (Lumex Instruments Canada, Version 4.2.4, Mission, BC, Canada). Quantification of each peptide, based on peak area, was performed using external standards and corresponding calibration curves, where the linearity was assessed by the coefficients of determination, R^2. The mean of three measurements for each treatment was taken.
# (§5) The apparent permeability coefficient (Papp) was calculated similarly to Song et al. (2020) [7], using the standard equation:Papp = ΔQ/(Δt × A × C0) where Δt is the incubation time (s), A is the surface area of the insert filter membrane (cm^2), C0 is the initial concentration of peptides in the apical compartment at time 0 h (μM), and ΔQ is the amount of peptide transported within a given period (μmol/s). The incubation timepoint (Δt) used was representative of the intestinal transport phase (2 h timepoint).
# HIEC-6 cells [3] = assay: as above; conditions: basolateral 2 h vs apical 0 h, mean ± SEM
# Method: as §1, §4, §5
# [4] = Bioavailability after first pass metabolism in HIEC-6/HepG2 co-culture; conditions: human
# Method: as §1, §4
# (§6) Bioavailability, after first pass metabolism, was expressed as a percentage of final and initial peptide digesta values, as described in Sadeghi Ekbatan et al. (2018) [8]. Bioavailability (%) = Peptide content after HepG2 incubation (Basolateral 5 h)/Initial amount of peptide (Apical 0 h) × 100
# HepG2 cells [5] = system: HepG2 cells
# Method: as §1, §2, §3
# HIEC-6 cells [6] = system: HIEC-6 cells
# Method: as §1, §4, §5
# HIEC-6/HepG2 co-culture = conditions: human
# Method: as §1, §4, §6
# [7] = human, in vivo; cited from earlier work
# in vitro [8] = conditions: human
# Method: as §1, §4, §6
# in vitro [9] = conditions: human, Apparent permeability coefficient (Papp)
# Method: as §1, §4, §5
# Caco-2 cells = conditions: cited from earlier work
# [10] = human, in vivo
# [11] = Peptide bioavailability after first pass metabolism
SMILES,Hepatic effect (%) on peptide content following HepG2 incubation (HepG2 cells [1]; CH-GL) [%],Hepatic effect (%) on peptide content following HepG2 incubation (HepG2 cells [1]; CH-OPT) [%],Papp A→B at 2 h ([2]; CH-GL treatment) [×10⁻⁶ cm/s],Peptide transport (%) across intestinal epithelium (HIEC-6 cells [3]; CH-GL digesta 2 mg/mL apical) [%],Peptide transport (%) across intestinal epithelium (HIEC-6 cells [3]; CH-OPT digesta 2 mg/mL apical) [%],Papp A→B at 2 h (in vitro [9]) [×10⁻⁶ cm/s],bioavailability at 5 h (in vitro [8]; [11]) [%],Papp (Caco-2 cells; Caco-2),also measured
C[C@H](N)C(=O)N1C[C@H](O)C[C@H]1C(=O)O [Ala-Hyp] (H-Ala-[Hyp]-OH; N-terminus and C-terminus assumed),304.9 ± 57.2,198.0 ± 107.6,0.725 ± 0.195,9.27 ± 2.49,26.4 ± 5.78,–,–,–,"Papp at 2 h [2]: 0.725 ± 0.195 ×10⁻⁶ cm/s; Papp A→B at 2 h ([2]; CH-OPT treatment): 1.03 ± 0.226 ×10⁻⁶ cm/s; bioavailability at 5 h ([4]; Average bioavailability after first pass metabolism, average): > 20%"
O=C(O)CNC(=O)[C@@H]1C[C@@H](O)CN1 [Hyp-Gly] (H-[Hyp]-Gly-OH; N-terminus and C-terminus assumed),–,–,–,–,–,6.74 ± 1.2,> 32,1e-05 cm/s,"Apparent permeability coefficient (Papp) (HIEC-6 cells [6]; human, 2 h): 5.593 ± 2.476 × 10^−6 cm/s; Transport (%) (Caco-2 cells): 22.63 ± 5.19%"
O=C(O)[C@@H]1C[C@@H](O)CN1C(=O)[C@@H]1CCCN1 [Pro-Hyp] (H-Pro-[Hyp]-OH; N-terminus and C-terminus assumed),151.4 ± 24.3,63.63 ± 8.63,1.91 ± 0.479,19.18 ± 4.81,24.15 ± 1.42,–,–,–,"Papp (Caco-2 cells; Caco-2, LC-MS/MS, ref 15 (Sontakke et al. 2016)): 0.13 ± 0.03 × 10^−6 cm/s; Papp (Caco-2 cells; cell model not printed at the place, ref 40 (Feng et al. 2017)): 1.45 ± 0.17 × 10^−6 cm/s; bioavailability at 5 h ([4]; Bioavailability (%) after first pass metabolism, CH-GL, basolateral 5 h as percentage of apical 0 h, mean ± SEM): 26.8 ± 3.97%; bioavailability at 5 h ([4]; Bioavailability (%) after first pass metabolism, CH-OPT, basolateral 5 h as percentage of apical 0 h, mean ± SEM): 15.4 ± 2.6%"

# The next lines start with results.
Hepatic effect (%) on peptide content following HepG2 incubation (HepG2 cells [1]; CH-GL) [%],Hepatic effect (%) on peptide content following HepG2 incubation (HepG2 cells [1]; CH-OPT) [%],Papp A→B at 2 h ([2]; CH-GL treatment) [×10⁻⁶ cm/s],Peptide transport (%) across intestinal epithelium (HIEC-6 cells [3]; CH-GL digesta 2 mg/mL apical) [%],Peptide transport (%) across intestinal epithelium (HIEC-6 cells [3]; CH-OPT digesta 2 mg/mL apical) [%],Papp A→B at 2 h (in vitro [9]) [×10⁻⁶ cm/s],bioavailability at 5 h (in vitro [8]; [11]) [%],SMILES,Papp (Caco-2 cells; Caco-2),also measured
–,–,–,–,–,~9,–,NCC(=O)N1CCC[C@H]1C(=O)N1C[C@H](O)C[C@H]1C(=O)O [Gly-Pro-Hyp] (H-Gly-Pro-[Hyp]-OH; N-terminus and C-terminus assumed),1.09 ± 0.03 × 10^−6 cm/s,Hepatic effect (%) on peptide content following HepG2 incubation (HepG2 cells [5]): 22.32 ± 5.09%; Apparent permeability coefficient (Papp) (HIEC-6 cells [6]): no apparent permeability coefficient could be determined; Bioavailability (%) after first pass metabolism (HIEC-6/HepG2 co-culture): none was observed; Gly-Pro-Hyp content in the plasma after 2 h [7]: ~ 1050 µM; Initial Gly-Pro-Hyp content in the plasma [7]: ~ 400 µM; bioavailability at 5 h (in vitro [8]; Bioavailability (%) after first pass metabolism): 12.2 ± 1.12%; Increase of plasma Gly-Pro-Hyp content [10]: 162.5%
–,–,–,–,–,–,> 32,NCC(=O)N1CCC[C@H]1C(=O)O [Gly-Pro] (H-Gly-Pro-OH; N-terminus and C-terminus assumed),–,–
